# Measurements: patent US11021481B2, “Substituted isoindolin-1-ones and 2,3-dihydro-1h-pyrrolo[3,4-c]pyridin-1-ones as HPK1 antagonists” (Nimbus Saturn, Inc., priority 2019, dated 2021)
# Where a name gives a salt, the structure may show the parent alone.
# Biological target: HPK1 (Homo sapiens (Human), UniProt Q92918)
# Test: HPK1 biochemical enzyme assay (microfluidic mobility shift assay)
# Details: 1.5 nM HPK1, ATP 1 mM final, 30 min preincubation, 60 min at RT, Caliper EZ Reader; read-out: HPK1 1000UMATP caliper IC50
# In short: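 Mobility shift readout of HPK1 activity after a 60 min RT reaction with 1 mM ATP, 1 μM substrate and 5 mM MgCl2. Enzyme/substrate mix was first exposed to compounds for 30 min, using ten-point curves topping at 3 μM final.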
# HPK1, sequence (Q92918 whole entry): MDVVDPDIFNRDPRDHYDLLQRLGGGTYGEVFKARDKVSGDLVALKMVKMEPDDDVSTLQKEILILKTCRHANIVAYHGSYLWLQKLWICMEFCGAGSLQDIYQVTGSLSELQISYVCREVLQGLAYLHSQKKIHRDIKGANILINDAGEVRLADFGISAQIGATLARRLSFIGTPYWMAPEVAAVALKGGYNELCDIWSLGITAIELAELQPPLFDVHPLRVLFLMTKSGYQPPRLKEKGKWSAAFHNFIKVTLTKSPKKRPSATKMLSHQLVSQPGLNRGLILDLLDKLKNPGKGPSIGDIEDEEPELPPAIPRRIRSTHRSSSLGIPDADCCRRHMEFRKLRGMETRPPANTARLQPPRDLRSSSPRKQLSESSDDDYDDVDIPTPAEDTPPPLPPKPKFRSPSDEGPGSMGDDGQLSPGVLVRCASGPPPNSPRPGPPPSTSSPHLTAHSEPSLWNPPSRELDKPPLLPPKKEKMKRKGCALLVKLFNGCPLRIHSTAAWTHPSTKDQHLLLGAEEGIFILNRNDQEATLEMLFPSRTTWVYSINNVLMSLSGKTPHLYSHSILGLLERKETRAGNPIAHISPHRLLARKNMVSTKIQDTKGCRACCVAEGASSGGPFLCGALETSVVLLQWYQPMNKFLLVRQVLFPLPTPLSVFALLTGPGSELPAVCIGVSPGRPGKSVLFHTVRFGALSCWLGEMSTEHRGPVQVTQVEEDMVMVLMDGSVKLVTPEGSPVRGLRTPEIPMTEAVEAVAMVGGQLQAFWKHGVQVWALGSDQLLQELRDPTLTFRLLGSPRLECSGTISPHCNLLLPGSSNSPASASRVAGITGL
row,IC50,Compound
1,< 0.1 µM,"CN(C)CCOC1(c2ccc(Nc3ccc(-c4cnc5cc(F)ccn45)c4c3C(=O)NC4)nc2)CCOCC1 [I-669, 7-((5-(4-(2-(dimethylami-no)ethoxy)tetra-hydro-2H-pyran-4-yl)pyridin-2-yl)amino)-4-(7-fluoroimidazo [1,2-a]pyridin-3-yl)isoindolin-1-one]"
2,< 0.1 µM,"CN1CCN(c2ccc(Nc3ccc(-c4cnc5ccccn45)c4c3C(=O)NC4)nc2)CC1 [I-39, 4-(imidazo[1,2-a]pyridin-3-yl)-7-((5-(4-methylpiperazin-1-yl)pyridin-2-yl)amino)isoindolin-1-one]"
3,0.1 to 1 µM,"CN1CCN(c2ccc(Nc3cnc(-c4cnn5c4CCC5)c4c3C(=O)NC4)nc2)CC1 [I-254, 4-(5,6-dihydro-4H-pyrrolo[1,2-b]pyrazol-3-yl)-7-((5-(4-methylpiperazin-1-yl)pyridin-2-yl)amino)-2,3-dihydro-1H-pyrrolo[3,4-c]pyridin-1-one]"
4,< 0.1 µM,"CN(C)Cc1nc(Nc2ccc(-c3cnc4cc(F)ccn34)c3c2C(=O)NC3)cnc1[C@H]1CCOC1 [I-800, (R)-7-((6-((dimethylamino)-methyl)-5-(tetrahydrofuran-3-yl)pyrazin-2-yl)amino)-4-(7-fluoroimidazo [1,2-a]pyridin-3-yl)isoindolin-1-one]"
5,< 0.1 µM,"COC1(c2ccc(Nc3ccc(-c4cnc5cc(F)ccn45)c4c3C(=O)NC4)nc2CN(C)C)CCOCC1 [I-830, 7-((6-((dimethylamino)-methyl)-5-(4-methoxytetra-hydro-2H-pyran-4-yl)pyridin-2-yl)amino)-4-(7-fluoroimidazo [1,2-a]pyridin-3-yl)isoindolin-1-one]"
6,< 0.1 µM,"CNC1CCN(c2ccc(Nc3ccc(-c4cnc5cc(C)ccn45)c4c3C(=O)NC4)nc2)CC1 [I-71, 7-[[5-[4-(methylamino)-1-piperidyl]-2-pyridyl]amino]-4-(7-methylimidazo [1,2-a]pyridin-3-yl)isoindolin-1-one]"
7,< 0.1 µM,"O=C1NCc2c(-c3cnc4cc(F)ccn34)ccc(Nc3ccc(N4CCC(O)(CN5CCOCC5)CC4)cn3)c21 [I-348, 4-(7-fluoroimidazo [1,2-a]pyridin-3-yl)-7-((5-(4-hydroxy-4-(morpholino-methyl)piperidin-1-yl)pyridin-2-yl)amino)isoin-dolin-1-one]"
8,< 0.1 µM,"CC(C)(O)[C@H]1CCCN(c2ccc(Nc3cnc(-c4cnc5c(F)cccn45)c4c3C(=O)NC4)nc2)C1 [I-243, 4-(8-fluoroimidazo [1,2-a]pyridin-3-yl)-7-[[5-[(3S)-3-(1-hydroxy-1-methyl-ethyl)-1-piperidyl]-2-pyridyl]-amino]-2,3-dihydropyrrolo [3,4-c]pyridin-1-one]"
9,0.1 to 1 µM,"CN1CCN(c2ccc(Nc3cnc(-c4c[nH]c5cc(F)ccc45)c4c3C(=O)NC4)nc2)CC1 [I-53, 4-(6-fluoro-1H-indol-3-yl)-7-[[5-(4-methylpiperazin-1-yl)-2-pyridyl]amino]-2,3-dihydropyrrolo [3,4-c]pyridin-1-one]"
10,< 0.1 µM,"CN1CCC(c2ccc(Nc3ccc(-c4ccnc5c4ccn5C)c4c3C(=O)NC4)nc2)CC1=O (stereo not shown) [I-271, 4-(1-methyl-1H-pyrrolo[2,3-b]pyridin-4-yl)-7-((5-(1-methyl-2-oxopiperidin-4-yl)pyridin-2-yl)amino)isoin-dolin-1-one]"
11,< 0.1 µM,"Cn1ccc2c(-c3ccc(Nc4ccc(C5(C)CCNCC5)cn4)c4c3CNC4=O)ccnc21 [I-272, 4-(1-methyl-1H-pyrrolo[2,3-b]pyridin-4-yl)-7-((5-(4-methylpiperidin-4-yl)pyridin-2-yl)amino)isoin-dolin-1-one]"
12,< 0.1 µM,"CN1CCN(c2ccc(Nc3ccc(-c4cnn5ccncc45)c4c3C(=O)NC4)nc2)CC1 [I-113, 7-[[5-(4-methylpiperazin-1-yl)-2-pyridyl]amino]-4-pyrazolo[1,5-a]pyrazin-3-yl-isoindolin-1-one]"
13,0.1 to 1 µM,"4-imidazo[1,2- a]pyridin-3-yl- 7-[(5-morpholino-2- pyridyl)-amino]-2,3- dihydropyrrolo [3,4-c]pyridin-1- one [I-198]"
14,< 0.1 µM,"O=C1NCc2c(-c3cnc4cc(C(F)F)ccn34)ccc(Nc3ccc(N4CCC(O)CC4)cn3)c21 [I-194, 4-[7-(difluorometh-yl)imidazo[1,2-a]pyridin-3-yl]-7-[[5-(4-hydroxy-1-piperidyl)-2-pyripyl]amino] isoindolin-1-one]"
15,< 0.1 µM,"N#Cc1ccn2c(-c3ccc(Nc4ccc(N5CCOCC5)cn4)c4c3CNC4=O)cnc2c1 [I-183, 3-[7-[(5-morpholino-2-pyridyl)amino]-1-oxo-isoindolin-4-yl]imidazo[1,2-a]pyridine-7-carbonitrile]"
16,< 0.1 µM,"O=C1NCc2c(-c3cnc4cc(F)ccn34)ccc(Nc3ccc(C4CCOC4)c(CNCC4CC4)n3)c21 (stereo not shown) [I-849, 7-[[6-[(cyclopropylmethylamino)methyl]-5-tetrahydrofuran-3-yl-2-pyridyl]amino]-4-(7-fluoroimidazo [1,2-a]pyridin-3-yl)isoindolin-1-one Formic acid salt]"
17,< 0.1 µM,"CC(C)(O)[C@@H]1CN(c2ccc(Nc3cnc(-c4cnc5c(F)cccn45)c4c3C(=O)NC4)nc2)CCO1 [I-483, 4-(8-fluoroimidazo [1,2-a]pyridin-3-yl)-7-[[5-[(2S)-2-(1-hydroxy-1-methyl-ethyl)morpholin-4-yl]-2-pyridyl]amino]-2,3-dihydropyrrolo [3,4-c]pyridin-1-one]"
18,< 0.1 µM,"O=C1NCc2c(-c3cnn4c3CCCC4)ccc(Nc3ccc(N4CCC(O)CC4)cn3)c21 [I-284, 7-((5-(4-hydroxy-piperidin-1-yl)pyridin-2-yl)amino)-4-(4,5,6,7-tetrahydropyra-zolo[1,5-a]pyridin-3-yl)isoindolin-1-one]"
19,< 0.1 µM,"Cn1ccc2c(-c3ncc(Nc4cccc(N5CC[C@H]6CNC[C@H]65)n4)c4c3CNC4=O)ccnc21 [I-440, 7-((6-((3aS,6aS)-hexahydropy-rrolo[3,4-b]pyrrol-(2H)-yl)pyridin-2-yl)amino)-4-(1-methyl-1H-pyrrolo[2,3-b]pyridin-4-yl)-2,3-dihydro-1H-pyrrolo[3,4-c]pyridin-1-one]"
20,< 0.1 µM,"CN(C)C1COCCN(c2ccc(Nc3ccc(-c4cnc5cc(F)ccn45)c4c3C(=O)NC4)nc2)C1 (stereo not shown) [I-509, 7-[[5-[6-(dimethylami-no)-l,4-oxazepan-4-yl]-2-pyridyl]amino]-4-(7-fluoroimidazo [1,2-a]pyridin-3-yl)isoindolin-1-one Formic acid salt]"
21,< 0.1 µM,"CN(C)Cc1nc(Nc2ccc(-c3cnc4cc(F)ccn34)c3c2C(=O)NC3)ccc1N1CCOC[C@H](O)C1 (single isomer, unassigned) [I-819]"
22,< 0.1 µM,"CN(CC1(O)CCCN(c2ccc(Nc3ccc(-c4cnc5cc(F)ccn45)c4c3C(=O)NC4)nc2)C1)C1CC1 (stereo not shown) [I-491, 7-[[5-[3-[[cyclopropyl (methyl)amino]methyl]-3-hydroxy-1-piperidyl]-2-pyridyl]amino] 4-(7-fluoroimidazo [1,2-a]pyridin-3-yl)isoindolin-1-one]"
23,< 0.1 µM,"C[C@H](c1ccc(Nc2ccc(-c3cnc4cc(F)ccn34)c3c2C(=O)NC3)nc1)N1CCOCC1 (single isomer, unassigned) [I-639]"
24,< 0.1 µM,"CN(C)CCc1nc(Nc2cnc(-c3ccnc4c3ccn4C)c3c2C(=O)NC3)ccc1C1CCOC1 (stereo in doubt) [I-808, (S)-7-((6-(2-(dimothylami-no)ethyl)-5-(tetrahydrofuran-3-yl)pyridin-2-yl)amino)-4-(1-methyl-1H-pyrrolo[2,3-b]pyridin-4-yl)-2,3-dihydro-1H-pyrrolo[3,4-c]pyridin-1-one]"
25,0.1 to 1 µM,"O=C1NCc2c(-c3cnn4c3CCCC4)ncc(Nc3ccc(N4CCC(O)CC4)cn3)c21 [I-330, 7-((5-(4-hydroxypiperidin-1-yl)pyridin-2-yl)amino)-4-(4,5,6,7-tetrahydropyra-zolo[1,5-a]pyridin-3-yl)-2,3-dihydro-1H-pyrrolo[3,4-c]pyridin-1-one]"
26,< 0.1 µM,"C[C@H]1COCCN1c1ccc(Nc2ccc(-c3cnc4cnccn34)c3c2C(=O)NC3)nc1 [I-314, (S)-4-(imidazo[1,2-a]pyrazin-3-yl)-7-((5-(3-methylmorpho-lino)pyridin-2-yl)amino)isoin-dolin-1-one]"
27,< 0.1 µM,"Cn1ccc2c(-c3ccc(Nc4ncc(N5CCC(O)CC5)cc4F)c4c3CNC4=O)ccnc21 [I-424, 7-((3-fluoro-5-(4-hydroxy-piperidin-1-yl)pyridin-2-yl)amino)-4-(1-methyl-1H-pyrrolo[2,3-b]pyridin-4-yl)isoindolin-1-one]"
28,< 0.1 µM,"O=C1NCc2c(-c3cnn4cccnc34)ccc(Nc3ccc(N4CCNCC4)cn3)c21 [I-117, 7-[(5-piperazin-1-yl-2-pyridyl)amino]-4-pyrazolo[1,5-a]pyrimidin-3-yl-isoindolin-1-one]"
29,< 0.1 µM,"CN1CCOC2(CCCN(c3ccc(Nc4ccc(-c5cnc6cc(F)ccn56)c5c4C(=O)NC5)nc3)C2)C1 (stereo not shown) [I-496, 4-(7-fluoroimidazo [1,2-a]pyridin-3-yl)-7-[[5-(4-methyl-1-oxa-4,8-diazaspiro[5.5]undecan-8-yl)-2-pyridyl]amino) isoindolin-1-one]"

row,Compound,IC50
1,"COCC1CN(c2ccc(Nc3ccc(-c4cnc5cc(F)ccn45)c4c3C(=O)NC4)nc2CN(C)C)CCO1 (stereo in doubt) [I-712, (S)-7-((6-((dimethylamino)-methyl)-5-(2-(methoxymeth-yl)morpho-lino)pyridin-2-yl)amino)-4-(7-fluoroimidazo [1,2-a]pyridin-3-yl)isoindolin-1-one]",< 0.1 µM
2,"CO[C@@H]1CC[C@@H](CO)N(c2ccc(Nc3ccc(-c4cnn5c4CCCC5)c4c3C(=O)NC4)nc2)C1 (stereo in doubt) [I-572, 7-((5-((2R,5R)-2-(hydroxymeth-yl)-5-methoxy-piperidin-1-yl)pyridin-2-yl)amino)-4-(4,5,6,7-tetralndropyra-zolo[1,5-a]pyridin-3-yl)isoindolin-1-one]",< 0.1 µM
